These results are taken from patent US20040067965A1, “Antiviral method of use” (priority 2001, published 2004).

Structures are written as SMILES.

One data set deals with HCMV strain AD169. The data set is described as follows: HCMV plaque reduction (inhibition of virus replication in cell culture). The class given is cell-based, human cytomegalovirus. As to conditions: for IC50: Human betaherpesvirus 5, MRC5, HCMV strain AD169, plaque formation, MRC-5 cells, read-out: IC50 = 50% Inhibitory Concentration of HCMV strain AD169 induced plaque formation in MRC-5 Cells. From the text: All materials required for this testing are commercially available. The testing method described is well documented in the literature, see, e.g. Colacino, J M and Lopez C., 1983, “Efficacy and selectivity of some nucleoside analogs as anti-human cytomegalovirus agents.” Antimicrob. Agents Chemother. 24:505-508; Colacino, J M and Lopez C., 1985, “Antiviral activity of 2′-deoxy-2′-fluoro-beta-D-arabinofuranosyl-5-iodocytosine against human cytomegalovirus in human skin fibroblasts.” Antimicrob. Agents Chemother. 28:252-258; and Mauldin, S C, Paget C J Jr., Jones C D, Colacino J M, Baxter A J, Staschke K A, Johansson N G, and Vrang L., 1998, “Synthesis and antiviral activity of prodrugs of the nucleoside 1-[2′,3′-dideoxy-3′-C-(hydroxymethyl)-beta-D-erythropentofuranosyl] cytosine.” Bioorg. Med Chem. 6:577-585.
Human fibroblast cells, foreskin or fetal lung cells, are infected with human cytomegalovirus. The cells are incubated with standard cell culture media containing no or increasing concentrations of ALIMTA. […] Additionally the yield of virus produced in the non-treated infected cell control cultures is compared to the yield of virus produced in the treated infected cell cultures.
The percent inhibition of virus replication can be determined and the concentration of molecule required to inhibit viral replication by 50% (IC50) and 90% (IC90) can be calculated using linear regression analysis.

A short description of another data set: in vitro. The class given is cell-based. As to conditions: human.

Regarding `Nc1nc2[nH]cc(CCc3ccc(C(=O)N[C@@H](CCC(=O)[O-])C(=O)[O-])cc3)c2c(=O)[nH]1.[Na+].[Na+]` [ALIMTA, disodium N-[4-[2-(2-amino-4,7-dihydro-4-oxo-3H-pyrrolo[2,3-d]-pyrimidin-5-yl)ethyl]benzoyl]-L-glutamic acid salt], the “Comments (HCMV screening summary)” value in the data set with HCMV strain AD169 (HCMV strain AD169 in MRC-5 cells) is listed as “High activity”. Besides, in the data set on HCMV strain AD169, the IC50 amounted to 0.29 µM. Moreover, the “TI (Therapeutic Index) = TC50/IC50” value in the data set with HCMV strain AD169 (TC50 (MRC-5) / IC50 (HCMV AD169 plaque formation), called selective index in text) was >344.8. Further, in the data set “in vitro”, the half-maximal cytotoxic concentration (CC50) is > 100 µM.
`Nc1nc(O)c2ncn(COC(CO)CO)c2n1` [Ganciclovir]: in the data set on HCMV strain AD169, the IC50 was 6.37 µM. In addition, in the data set “in vitro”, the CC50 was > 100 µM.
